For data set [1], the system named is Artemia. Put plainly: Toxicity to brine shrimp. It is filed as organism-based. Particulars: in vivo.
The nature of data set [2]: Cytotoxicity against human 9KB cells. It is filed as functional. Particulars: read-out: ED50 (the source's name).
Data set [3] in a line: Cytotoxicity against human KBMRI cells. It is filed as functional. Particulars: read-out: ED50 (the source's name).
Data set [4] relates to A549. Put plainly: Cytotoxicity against human A549 cells. Particulars: read-out: ED50 (the source's name). It is filed as functional.
Data set [5] relates to HT-29. The data set is described as follows: Cytotoxicity against human HT-29 cells. It is filed as functional. Particulars: read-out: ED50 (the source's name).
The nature of data set [6]: Cytotoxicity against mouse 9PS cells. It is filed as functional. As to conditions: read-out: ED50 (the source's name).

≈ marks a conversion by molar mass, not a printed value. Bounds are passed on as bounds.

Broadly, the LC50 is the concentration that kills 50% of the test population. Higher therefore signals lower toxicity. In the case of `COc1ccc2c(c1)[nH]c1cc(O)c(C=O)cc12`, the median lethal concentration (LC50) in data set [1] amounted to 35 ppm. Further, the EC50 was 5.7 µg/mL (≈ 23.6 µM) in data set [2]; 4.48 µg/mL (≈ 18.6 µM) in data set [3]; 2.74 µg/mL (≈ 11.4 µM) in data set [4]; 4 µg/mL (≈ 16.6 µM) in data set [5]; greater than 10 µg/mL in data set [6].
On to `COc1ccc2c(c1)[nH]c1c(CC=C(C)C)c(O)c(C=O)cc12`, for which the LC50 in data set [1] was greater than 500 ppm. Further, the EC50 in data set [2] was 3.01 µg/mL (≈ 9.73 µM); in data set [3], 2.87 µg/mL (≈ 9.28 µM); in data set [4], 2.16 µg/mL (≈ 6.98 µM); in data set [5], 1.36 µg/mL (≈ 4.4 µM); in data set [6] it was greater than 10 µg/mL.
